Experimental data taken from patent publication US20250340569A1, “INHIBITORS OF KIF18A AND USES THEREOF” (Insilico Medicine IP Limited, priority 2023, published 2025).
pIC50: −log10 of the molar value.

How the values were obtained:
[1] = target: T1, Kif18A (Homo sapiens, UniProt Q8NI77); assay: KIF18A assay (ADP Glo); details: biochemical assay, ADP Glo luminescence
T1 sequence (Q8NI77 1-898): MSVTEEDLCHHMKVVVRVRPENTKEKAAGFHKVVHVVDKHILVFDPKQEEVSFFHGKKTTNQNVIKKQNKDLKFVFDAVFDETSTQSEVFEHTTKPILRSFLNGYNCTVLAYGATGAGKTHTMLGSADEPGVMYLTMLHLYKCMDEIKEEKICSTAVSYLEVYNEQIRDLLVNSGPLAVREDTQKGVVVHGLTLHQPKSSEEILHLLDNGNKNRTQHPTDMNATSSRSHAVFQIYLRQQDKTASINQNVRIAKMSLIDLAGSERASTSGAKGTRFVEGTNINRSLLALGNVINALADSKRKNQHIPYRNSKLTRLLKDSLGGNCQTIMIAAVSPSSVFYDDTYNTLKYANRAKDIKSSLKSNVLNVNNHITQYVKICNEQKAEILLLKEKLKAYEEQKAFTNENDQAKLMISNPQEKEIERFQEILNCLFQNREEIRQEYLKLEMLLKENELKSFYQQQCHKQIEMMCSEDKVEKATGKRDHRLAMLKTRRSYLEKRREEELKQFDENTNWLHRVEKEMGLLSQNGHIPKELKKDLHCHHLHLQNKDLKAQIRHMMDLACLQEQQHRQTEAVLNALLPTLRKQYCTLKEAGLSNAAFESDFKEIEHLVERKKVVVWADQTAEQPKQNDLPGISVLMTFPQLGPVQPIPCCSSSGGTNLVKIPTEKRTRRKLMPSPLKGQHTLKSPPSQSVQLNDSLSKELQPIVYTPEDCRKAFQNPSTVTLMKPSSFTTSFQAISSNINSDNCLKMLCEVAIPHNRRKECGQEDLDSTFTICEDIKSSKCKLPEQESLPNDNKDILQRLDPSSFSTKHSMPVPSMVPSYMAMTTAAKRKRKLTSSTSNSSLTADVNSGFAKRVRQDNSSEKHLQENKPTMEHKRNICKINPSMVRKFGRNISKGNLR
Method: The KIF18A assay was performed as follows:
1.1. Prepared 1× Kinase Buffer
• a) Added 40 μL test compound to 384-well dilution plate • b) Diluted compound 1:3 in succession in DMSO for each column for 10 pts • c) Transferred 0.1 μL diluted compound solution to 384 assay plate using Echo, each column containing 2 replicates • d) Added 5 μL enzyme working solution to 384-well assay plate, centrifuge 1000 RPM for 1 min e) Incubated at 25° C. for 15 min • f) Added 5 μL ATP working solution to initiate reaction • g) Incubated at 25° C. for 60 min • h) Added 10 μL ADP Glo reagent, centrifuge 1000 RPM for 1 min • i) Incubated at 25° C. for 60 min • j) Added 20 μL kinase detection reagent, centrifuge 1000 RPM for 1 min • k) Incubated at 25° C. for 60 min • l) Read Luminescence Signal on Envision 2104 plate reader.
1.3. Data Analysis—Calculated IC50 and Plot Dose-Response Curve of Compounds:
Calculated IC50 by fitting % Inhibition values and log of compound concentrations to nonlinear regression (dose response−variable slope) with GraphPad 6.0.
[formula] • X: log of inhibitor concentration; Y: % Inhibition

[2] = test system: OVCAR-3; assay: OVCAR3 CTG assay; assay type: cell-based; details: Homo sapiens, OVCAR-3, 144 h; CellTiter-Glo, 6 days incubation
Method in brief: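 OVCAR-3 cells plated overnight, then exposed to test compounds for 6 days at 37 °C, 5% CO2; 2 mM DMSO working stock diluted 200-fold overall, staurosporine as control. Viability read by CellTiter-Glo luminescence after 10 min lysis and 10 min room-temperature stabilisation.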

SMILES	pIC50 [1]	pIC50 [2]
O=C1Nc2cccc(n2)N2CCO[C@@H](COCC3(C(F)(F)F)CCN(CC3)c3cc(NS(=O)(=O)CCO)ccc31)C2 [EX81-A]	7.00 to 8.00	> 8.00
CN1CCCOCC2(C(F)(F)F)CCN(CC2)c2cc(NS(=O)(=O)CCO)ncc2C(=O)Nc2cccc1n2 [EX82]	7.00 to 8.00	7.00 to 8.00
C[C@@H]1CCCC2(C(F)F)CCN(CC2)c2cc(NS(=O)(=O)CCO)ccc2C(=O)Nc2cccc(n2)NC1 [EX102-A]	> 8.00	7.00 to 8.00
Cc1cc2nc(n1)N1CCOC(COCC3(C(F)(F)F)CCN(CC3)c3cc(NS(=O)(=O)CCO)c(F)cc3C(=O)N2)C1 (stereo not drawn) [EX112]	> 8.00	> 8.00
Cc1cc2nc(n1)N1CCO[C@H](COCC3(C(F)F)CCN(CC3)c3cc(NS(=O)(=O)CCO)ccc3C(=O)N2)C1 [EX113-A]	7.00 to 8.00	> 8.00
Cc1cc2nc(n1)N1CCC(F)(F)[C@@H](CCCC3(C)CCN(CC3)c3cc(NS(=O)(=O)CCO)ccc3C(=O)N2)C1 [EX115-B]	7.00 to 8.00	7.00 to 8.00
